Patent US9089544B2, “Composition” (Slotervaart Participaties BV, priority 2007, dated 2015)
Where “and” joins values, the source holds several entries; their conditions need not be identical. Identical values can stand only once. Each block holds one molecule with its values, some of them ahead of it.

Experiments:
[1] = Docetaxel solubility (dissolution) test of formulations A to N in 25 mL WfI; assay type: physicochemical; details: 37° C., 720 rpm; for maximum docetaxel concentration / maximum docetaxel concentration as % of total docetaxel present: ±6 mg docetaxel
Procedure: A magnetic stirring bar and 25 mL water were added to the beaker. The solution was stirred at 720 rpm, and kept at approximately 37° C. Samples were collected at various timepoints, and filtrated using a 0.45 μm filter before they were diluted with a 1:4 v/v mixture of methanol and acetonitrile. The filtrated and diluted samples were subsequently analyzed by HPLC-UV (see table 17).

clinical [2] = details: human, in vivo, 100 mg
Procedure: Oral ritonavir: 1 capsule with 100 mg ritonavir (Norvir®).
Ritonavir dose: 1 capsule with 100 mg ritonavir (Norvir®).
After drug administration blood samples were collected for pharmacokinetic analyses. A blank sample was taken before dosing. Blood samples were centrifuged, plasma was separated and immediately stored at −20° C. until analyses. Analysis were performed with validated HPLC methods in a GLP (Good Laboratory Practice) licensed laboratory. This concerns all pharmacokinetic studies presented here by the inventors.

[3] = Clinical phase I trial: docetaxel liquid formulation versus MODRA capsules with ritonavir (Example 5); assay type: in vivo, human; details: 20 mg docetaxel liquid formulation, patient 306
Procedure: 10 patients participated in an ongoing clinical phase I trial.
The final mixture was transferred to a stainless steel lyophilisation box (Gastronorm size 1/3), t-butanol and water were subsequently removed by lyophilisation (see table. 16).
Patients took the medication orally on an empty stomach in the morning with 100 mL tap water.
Patients 307, 308, 309 and 310 received liquid formulation and/or MODRA. Cycles were administered in a weekly interval.
According to institutional guidelines, for both oral and i.v. docetaxel all patients were treated with oral dexamethason. A dose of 4 mg dexamethason was given 1 hour prior to the study drugs, followed by 4 mg every 12 hours (2 times).
A blank sample was taken before dosing.
According to institutional guidelines, for both oral and i.v. docetaxel, all patients were treated with oral dexamethason. A dose of 4 mg dexamethason was given 1 hour prior to the study drugs, followed by 4 mg every 12 hours (2 times).

[4] = human, in vivo
[5] = mice; cited from earlier work
[6] = cited from earlier work
[7] = cited from earlier work; remark: listed apart in the source
clinical [8] = details: human, in vivo, po, 100 mg
[9] = cited from earlier work; remark: listed apart in the source
[10] = cited from earlier work; remark: listed apart in the source
[11] = oral docetaxel 75 mg/m^2, CsA 15 mg/kg

equilibrium docetaxel concentration [1]: approximately 6 μg/mL | equilibrium docetaxel concentration as % of total docetaxel present [1]: ~2% | time at which equilibrium concentration is reached [1]: 15 min | time of stirring at which maximum concentration is reached [1]: 5 min | maximum docetaxel concentration [1]: approximately 12 μg/mL | maximum docetaxel concentration as % of total docetaxel present [1]: ~4.7%
SMILES: CC(=O)O[C@@]12CO[C@@H]1C[C@H](O)[C@@]1(C)C(=O)[C@H](O)C3=C(C)[C@@H](OC(=O)[C@H](O)[C@@H](NC(=O)OC(C)(C)C)c4ccccc4)C[C@@](O)([C@@H](OC(=O)c4ccccc4)[C@H]21)C3(C)C [Formulation A, docetaxel]

solubility from 10 to 60 minutes [1]: comparable to formulation A | time of stirring at which maximum concentration is reached [1]: 0.5 min | maximum docetaxel concentration [1]: 32 µg/mL | maximum docetaxel concentration as % of total docetaxel present [1]: 13%
SMILES: CC(=O)O[C@@]12CO[C@@H]1C[C@H](O)[C@@]1(C)C(=O)[C@H](O)C3=C(C)[C@@H](OC(=O)[C@H](O)[C@@H](NC(=O)OC(C)(C)C)c4ccccc4)C[C@@](O)([C@@H](OC(=O)c4ccccc4)[C@H]21)C3(C)C [Formulation B, docetaxel]

AUC (clinical [2]; iv, AUC IV day 15): 2100 ng·h/mL | Tmax (clinical [2]; iv, Tmax IV day 15): 48 min | AUC (clinical [2]; po, AUC docetaxel oral without ritonavir): 290 ± 260 ng·h/mL | increase of docetaxel AUC by second boosting dose of 100 mg ritonavir 4 hours after docetaxel [3]: 1.5 fold | volume of the central compartment, oral administration [4]: ~60 L | bioavailability (clinical [8]): 14%
SMILES: CC(=O)O[C@@]12CO[C@@H]1C[C@H](O)[C@@]1(C)C(=O)[C@H](O)C3=C(C)[C@@H](OC(=O)[C@H](O)[C@@H](NC(=O)OC(C)(C)C)c4ccccc4)C[C@@](O)([C@@H](OC(=O)c4ccccc4)[C@H]21)C3(C)C [docetaxel]
apparent bioavailability without ritonavir [5]: 4% | increase of AUC of oral docetaxel by coadministration with CsA [5]: ninefold | apparent bioavailability of oral docetaxel with CsA [6, 11]: 90% | increase of the systemic exposure of docetaxel with oral CsA [6, 11]: 7.3 fold | apparent bioavailability of oral docetaxel without CsA ([6]; oral docetaxel 75 mg/m^2): 8% | inter- and intra-patient variabilities in the AUC of docetaxel ([6]; range observed after i.v. administration, oral in the same range): 29%-53% | docetaxel AUC ([7]; 100 mg oral docetaxel + CsA 15 mg/kg, weekly): about 2.3 mg·h/L | overall response rate ([7]; weekly 100 mg oral docetaxel + CsA 15 mg/kg, breast cancer): 50% and 52%

SMILES: CC(=O)O[C@H]1C(=O)[C@@]2(C)[C@H]([C@H](OC(=O)c3ccccc3)[C@]3(O)C[C@H](OC(=O)[C@H](O)[C@@H](NC(=O)c4ccccc4)c4ccccc4)C(C)=C1C3(C)C)[C@]1(OC(C)=O)CO[C@@H]1C[C@@H]2O [paclitaxel]
increase of AUC in knockout mice compared with wild-type mice, i.v. administration ([9]; mdr1a P-gp knockout mice): twofold | increase of AUC in knockout mice compared with wild-type mice, oral administration ([9]; mdr1a P-gp knockout mice): sixfold | oral bioavailability in wild-type mice when CsA was coadministered ([9]; mouse, in vivo, po): 67% | oral bioavailability in wild-type mice with GF120918 ([9]; mouse, in vivo, po): 40% | oral bioavailability in wild-type mice, paclitaxel alone ([9]; mouse, in vivo, po): 9% and 8.5% | fraction of unchanged paclitaxel recovered from the faeces, mdr1a P-gp knockout mice ([9]; oral administration): 3% | apparent bioavailability of oral paclitaxel with CsA ([10]; 60 mg/m^2 oral paclitaxel, 15 mg/kg CsA): 47% | apparent bioavailability of oral paclitaxel without CsA ([10]; 60 mg/m^2 oral paclitaxel): 4% | maximum tolerated dose ([10]; oral paclitaxel in combination with CsA): 300 mg/m^2

Ritonavir Cmax Simultaneous (clinical [2]; po): 200 ng/mL
SMILES: CC(C)c1nc(CN(C)C(=O)N[C@H](C(=O)N[C@@H](Cc2ccccc2)C[C@H](O)[C@H](Cc2ccccc2)NC(=O)OCc2cncs2)C(C)C)cs1 [ritonavir]
